In one data set the target is T1, Recombinant human IL4I1 (Homo sapiens, UniProt Q96RQ9).
T1 construct: purchased R&D Systems, Inc
T1 sequence (Q96RQ9 22-567): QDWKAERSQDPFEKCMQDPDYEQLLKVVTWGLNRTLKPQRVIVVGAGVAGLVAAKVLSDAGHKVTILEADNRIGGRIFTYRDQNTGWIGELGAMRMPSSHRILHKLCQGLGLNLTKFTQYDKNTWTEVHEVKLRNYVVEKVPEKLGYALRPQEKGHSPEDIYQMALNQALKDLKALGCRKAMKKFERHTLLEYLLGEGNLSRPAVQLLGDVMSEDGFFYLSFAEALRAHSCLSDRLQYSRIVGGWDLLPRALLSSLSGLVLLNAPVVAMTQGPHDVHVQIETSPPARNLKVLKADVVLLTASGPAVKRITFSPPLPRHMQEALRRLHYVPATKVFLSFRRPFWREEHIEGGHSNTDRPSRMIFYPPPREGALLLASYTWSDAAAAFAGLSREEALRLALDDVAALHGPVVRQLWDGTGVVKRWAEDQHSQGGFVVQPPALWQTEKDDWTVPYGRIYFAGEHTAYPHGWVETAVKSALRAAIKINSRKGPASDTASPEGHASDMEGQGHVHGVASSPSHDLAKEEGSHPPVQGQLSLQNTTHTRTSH
Put plainly: Evaluation of Ki, fluorometric IL4I1 assay. Type of data set: biochemical. The following applies: for Ki: average of three experiments; for IL4I1 Inhibitor: recombinant human IL4I1, 30 min pre-incubation. On the procedure:
Evaluation of Ki. Recombinant human IL4I1 (from R&D Systems, Inc) was diluted in PBS at 100 µg/mL and pre-incubated for 30 min with decreasing amounts of each inhibitor dissolved in DMSO (50, 25, and 2.5 μM) or DMSO as a control. The activity was tested in the presence of various amounts of substrate ([…] phenylalanine) using the fluorometric IL4I1 assay described by Carbonnelle-Puscian et al. (Leukemia, 2009, volume 23, pages 952-960 (2009). Ki were calculated using Graph Pad Prism.
Recombinant human IL4I1 was diluted in PBS at 100 µg/mL and pre-incubated for 30 min with decreasing amounts of each inhibitor dissolved in DMSO (50, 25, or 2.5 μM) or DMSO alone, as a control, and IL4I1 measured. […] Compound 13 inhibits IL4l1 activity with an almost 10-fold higher Ki.

The subject of data set [1] is Jurkat cells. Kind of data set: Evaluation of apoptosis, activated caspase-3 staining, Jurkat cells. It counts as cell-based. The following applies: 100 μM, 24 h. On the procedure: (§1) Evaluation of Apoptosis. Cells were seeded at 0.5×10^6/mL in 24-well plates, with or without the compounds at 100 μM or 10 μM etoposide (VP16) as a positive control, and incubated at 37° C. for 24 h. Cells were then fixed and permeabilized using cytox/cytoperm solution (BD Bioscience) followed by the addition of anti-activated caspase 3-AlexaFluor 647 (Rabbit anti-active Caspase 3 clone C92-605, BD Pharmingen). Caspase-3 positive cells were evaluated using a Cyan ADP LX7 (Beckman Coulter) and analyzed using Flowjo.
(§2) (A) Activated caspase-3 staining of Jurkat cells and (B) PBMC. Cells at 0.5×10^6/mL were seeded in 24-well plates with or without the compounds at 100 μM or 10 μM etoposide (VP16), as a positive control, and incubated at 37° C. for 24 h. Twenty-four hours after treatment, apoptotic Caspase-3 positive cells were evaluated by FACS. Data are expressed as the percentage of Caspase-3 positive cells±SD from three independent experiments.

Data set [2] relates to Jurkat cells. Put plainly: Metabolic proliferation (CellTiter 96 Non-Radioactive Cell Proliferation Assay). It counts as cell-based. The following applies: CellTiter 96, relative to DMSO control. On the procedure: (§3) Cell counts. Jurkat cells were seeded at 0.1×10^6/mL in a 24-well plate and an aliquot mixed with Trypan blue and counted at days 1, 2, 3, and 6 using disposable Fast-read 10 chambers. Evaluation of metabolic proliferation. Jurkat cells were seeded at 0.1×10^6/mL in a 96-well plate and incubated at 37° C. in 5% CO2 for various times. At each time point, cells were centrifuged, the medium removed, and CellTiter 96® Non-Radioactive Cell Proliferation Assay reagent (Promega) added and the cells incubated an additional 4 h before measuring the optical density at 570 nm in a plate reader (BMG Labtech Fluostar Optima).
(§4) (A) Jurkat cells were seeded at 0.1×10^6/mL in a 24-well plate and an aliquot mixed with Trypan blue and counted at days 1, 2, 3, and 6. Data are the average±SD of three independent experiments. (B) Jurkat cells were seeded at 0.1×10^6/mL in a 96-well plate and incubated at 37° C. in 5% CO2 for the times indicated in FIG. 2. At each time point, cells were centrifuged, the medium removed, and the CellTiter 96® Non-Radioactive Cell Proliferation Assay (Promega) performed. Data are reported as the percentage of proliferation relative to that of the control samples (treated with DMSO) and are the average±SD of three independent experiments. *** p<0,001, **** p<0,0001 Two-way ANOVA test.

Another data set relates to PBMC. Kind of data set: Evaluation of apoptosis, activated caspase-3 staining, PBMC. Type of data set: cell-based, human. The following applies: 100 μM, 24 h. On the procedure:
as §1, §2

The subject of data set [3] is Jurkat cells. Kind of data set: Jurkat cell counts (Trypan blue). It counts as cell-based. The following applies: for Jurkat cell proliferation measured by cell counting: Trypan blue counts at days 1, 2, 3 and 6. On the procedure: as §3, §4
Data set [4] relates to Jurkat cells. Kind of data set: Cell proliferation of CPD eFluor670-labeled Jurkat cells (FACS). Type of data set: cell-based. The following applies: data not shown. On the procedure: (§5) Evaluation of cell proliferation. Jurkat cells and PBMCs were labeled with 2 μM Cell Proliferation Dye (CPD) eFluor670 for 10 min at 37° C. DMSO or the compounds were added to labeled PBMCs or Jurkat cells before putting them in culture at 0.2×10^6/well. Jurkat cells were cultured under standard conditions, whereas PBMCs were cultured in 96 U-shaped wells pre-coated with a 0.5 μg/mL solution of anti-CD3 (clone OKT3) functional quality antibody (eBioscience). Cells were collected at day 0, 3, and 6 for fluorescence analysis using a Cyan ADP LX7 (Beckman Coulter). Data were analyzed using Flowjo.

A further data set concerns PBMCs. Put plainly: Cell proliferation of CPD eFluor670-labeled, anti-CD3 stimulated PBMCs (FACS). Type of data set: cell-based, human. The following applies: for division index / proliferation index: PBMCs, relative to cells treated with DMSO; for proliferation of PBMCs: anti-CD3 stimulated, days 3 and 6, relative to DMSO. How it is done: as §5
Cell proliferation dye fluor670-labeled PBMCs were stimulated to proliferate in 96-well anti-CD3 coated plates and analyzed at days 3 and 6 by FACS gating on the lymphocytes population. (A) A typical FACS analysis at day 3 is shown. (B) The division (left panel) and proliferation indices (right panel) were calculated using FlowJo. Data are representative of three independent experiments.

The mark [5] stands for this setting: compounds disclosed in WO2010/06685.

Consider `CCOC(=O)C(Cc1ccccc1)Nc1ccccc1C(O)C(=O)OCC` (stereo not shown) [Cp 16], for which, at Recombinant human IL4I1, the Ki came out at 25 µM and the “IL4I1 Inhibitor” value is “Yes”. The “apoptosis of Jurkat cells (Caspase-3 positive cells)” value (shortened to “apoptosis of Jurkat cells”) in the data set on Jurkat cells [1] is on record as “does not induce apoptosis”.
As for `CC(=O)N[C@@H](Cc1ccccc1)C(=O)O` [N-acetyl-phenylalanine, reference compound], the Ki on Recombinant human IL4I1 (setting [5]) amounted to 2100 µM.
Consider `CCOC(=O)C(Cc1ccccc1)N(CC)CC` (stereo not shown) [Cp 13], for which the “Jurkat cell proliferation measured by metabolic labeling” value in the data set on Jurkat cells [2] is on record as “do not affect cell proliferation”. Moreover, the “fold higher Ki” value at Recombinant human IL4I1 (Ki compared with the other tested compounds) was approximately 10 fold. Also, at Recombinant human IL4I1, the Ki stood at 102 µM and the “IL4I1 Inhibitor” value is “Yes”. The “apoptosis of PBMCs (Caspase-3 positive cells)” value (“apoptosis of PBMCs” for short) in the data set on PBMC is reported as “do not induce significant apoptosis”. In the data set with Jurkat cells [3], the “Jurkat cell proliferation measured by cell counting” value is listed as “do not affect cell proliferation”. The “apoptosis of Jurkat cells” value with Jurkat cells [1] is on record as “do not induce significant apoptosis”. For the same compound, the “proliferation of Jurkat cells” value in the data set on Jurkat cells [4] was “not substantially modified”. Moreover, in the data set on PBMCs, the division index entry is on record as “do not vary markedly”, the proliferation index result is recorded as “do not vary markedly” and the “proliferation of PBMCs” value was “not substantially modified”.
Consider `NC(Cc1ccccn1)C(=O)O` (stereo not shown) [2′-aza-phenylalanine, reference compound], for which the Ki at Recombinant human IL4I1 (setting [5]) was 2800 µM.
As to `CCOC(=O)C(Cc1ccccc1)Nc1ccccc1` (stereo not shown) [Cp 15], at Recombinant human IL4I1, the Ki worked out at 26.9 µM and the “IL4I1 Inhibitor” value is reported as “Yes”. Also, the “Jurkat cell proliferation measured by cell counting” value in the data set with Jurkat cells [3] was “no cells remained after six days of culture”. Moreover, the “toxicity to Jurkat cells” value in the data set on Jurkat cells [3] (six days of culture) is reported as “toxic”.
Consider `CCOC(=O)C(Cc1c(Cl)cccc1Cl)N1CCCCC1` (stereo not shown) [Cp 7], for which, in the data set with Jurkat cells [2], the “Jurkat cell proliferation measured by metabolic labeling” value is recorded as “strongly inhibits proliferation”. Also, at Recombinant human IL4I1, the Ki was determined as 9.8 µM and the “IL4I1 Inhibitor” value is “Yes”. The “apoptosis of PBMCs” value with PBMC was “induced”. Moreover, in the data set with Jurkat cells [3], the “Jurkat cell proliferation measured by cell counting” value was “strongly inhibits proliferation”. The “apoptosis of Jurkat cells” value in the data set on Jurkat cells [1] is on record as “induced”.
In the case of `CCOC(=O)[C@@H](N)Cc1ccccc1` [L-phenylalanine ethyl ester, reference compound], the Ki on Recombinant human IL4I1 (setting [5]) amounted to 3100 µM.
On to `CCCNC(Cc1ccccc1)C(=O)OCC` (stereo not shown) [Cp 2], for which the “Jurkat cell proliferation measured by metabolic labeling” value with Jurkat cells [2] is “do not affect cell proliferation”. In addition, on Recombinant human IL4I1, the Ki was 21.3 µM and the “IL4I1 Inhibitor” value is “Yes”. Moreover, the “apoptosis of PBMCs” value in the data set with PBMC is “do not induce significant apoptosis”. Further, the “Jurkat cell proliferation measured by cell counting” value with Jurkat cells [3] is reported as “do not affect cell proliferation”. Also, the “apoptosis of Jurkat cells” value in the data set on Jurkat cells [1] is “do not induce significant apoptosis”. For the same compound, in the data set on Jurkat cells [4], the “proliferation of Jurkat cells” value is “not substantially modified”. Moreover, in the data set on PBMCs, the division index result is on record as “do not vary markedly”, the proliferation index result is reported as “do not vary markedly” and the “proliferation of PBMCs” value is listed as “not substantially modified”.

The values are drawn from patent publication US20210023034A1, “PHENYLALANINE DERIVATIVES FOR USE IN THE TREATMENT OF CANCERS” (UNIVERSITE PARIS EST CRETEIL VAL DE MARNE, priority 2018, published 2021).
